System: Genes belonging to other category
Assay: DNA chip mRNA expression in yeast, genes belonging to other category (Table 9)
Assay type: cell-based, Saccharomyces cerevisiae S288C
In short: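 In this screen, yeast in logarithmic growth are challenged for two hours with a toxic substance at a non-lethal inhibitory concentration. Their mRNA, converted to Cy3- or Cy5-labeled cDNA, hybridizes at 65° C. to a chip spanning every yeast gene, and expression is expressed as a ratio to untreated cells.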

Cl[C@H]1[C@H](Cl)[C@@H](Cl)[C@@H](Cl)[C@H](Cl)[C@H]1Cl [(7), γ-hexachlorocyclohexane]
The level of expressed mRNA in the presence of chemical substance/The level of expressed mRNA in the absence of chemical substance (yeast gene YAR010C): 1.9 | The level of expressed mRNA in the presence of chemical substance/The level of expressed mRNA in the absence of chemical substance (yeast gene YBL005W-A): 1.4 | The level of expressed mRNA in the presence of chemical substance/The level of expressed mRNA in the absence of chemical substance (yeast gene YBL041W): 1.6 | The level of expressed mRNA in the presence of chemical substance/The level of expressed mRNA in the absence of chemical substance (yeast gene YBL043W): 1.5 | The level of expressed mRNA in the presence of chemical substance/The level of expressed mRNA in the absence of chemical substance (yeast gene YBL078C): 3.1 | The level of expressed mRNA in the presence of chemical substance/The level of expressed mRNA in the absence of chemical substance (yeast gene YBR214W): 1.1 | The level of expressed mRNA in the presence of chemical substance/The level of expressed mRNA in the absence of chemical substance (yeast gene YCL020W): 1.5 | The level of expressed mRNA in the presence of chemical substance/The level of expressed mRNA in the absence of chemical substance (yeast gene YCL027W): 1.0 | The level of expressed mRNA in the presence of chemical substance/The level of expressed mRNA in the absence of chemical substance (yeast gene YCR004C): 1.4 | The level of expressed mRNA in the presence of chemical substance/The level of expressed mRNA in the absence of chemical substance (yeast gene YCR071C): 1.4 | The level of expressed mRNA in the presence of chemical substance/The level of expressed mRNA in the absence of chemical substance (yeast gene YCR088W): 1.2 | The level of expressed mRNA in the presence of chemical substance/The level of expressed mRNA in the absence of chemical substance (yeast gene YDL008W): 2.0 | The level of expressed mRNA in the presence of chemical substance/The level of expressed mRNA in the absence of chemical substance (yeast gene YDL238C): 1.4 | The level of expressed mRNA in the presence of chemical substance/The level of expressed mRNA in the absence of chemical substance (yeast gene YDR055W): 1.5 | The level of expressed mRNA in the presence of chemical substance/The level of expressed mRNA in the absence of chemical substance (yeast gene YDR084C): 0.9 | The level of expressed mRNA in the presence of chemical substance/The level of expressed mRNA in the absence of chemical substance (yeast gene YDR085C): 4.1 | The level of expressed mRNA in the presence of chemical substance/The level of expressed mRNA in the absence of chemical substance (yeast gene YDR104C): 1.0 | The level of expressed mRNA in the presence of chemical substance/The level of expressed mRNA in the absence of chemical substance (yeast gene YDR115W): 1.6 | The level of expressed mRNA in the presence of chemical substance/The level of expressed mRNA in the absence of chemical substance (yeast gene YDR259C): 2.8 | The level of expressed mRNA in the presence of chemical substance/The level of expressed mRNA in the absence of chemical substance (yeast gene YDR315C): 1.4 | The level of expressed mRNA in the presence of chemical substance/The level of expressed mRNA in the absence of chemical substance (yeast gene YDR358W): 2.8 | The level of expressed mRNA in the presence of chemical substance/The level of expressed mRNA in the absence of chemical substance (yeast gene YDR388W): 1.1 | The level of expressed mRNA in the presence of chemical substance/The level of expressed mRNA in the absence of chemical substance (yeast gene YDR432W): 0.5 | The level of expressed mRNA in the presence of chemical substance/The level of expressed mRNA in the absence of chemical substance (yeast gene YDR481C): 0.7 | The level of expressed mRNA in the presence of chemical substance/The level of expressed mRNA in the absence of chemical substance (yeast gene YDR510W): 1.6 | The level of expressed mRNA in the presence of chemical substance/The level of expressed mRNA in the absence of chemical substance (yeast gene YEL042W): 0.5 | The level of expressed mRNA in the presence of chemical substance/The level of expressed mRNA in the absence of chemical substance (yeast gene YEL066W): 1.8 | The level of expressed mRNA in the presence of chemical substance/The level of expressed mRNA in the absence of chemical substance (yeast gene YER039C): 1.3 | The level of expressed mRNA in the presence of chemical substance/The level of expressed mRNA in the absence of chemical substance (yeast gene YER107C): 1.0 | The level of expressed mRNA in the presence of chemical substance/The level of expressed mRNA in the absence of chemical substance (yeast gene YER130C): 1.5 | The level of expressed mRNA in the presence of chemical substance/The level of expressed mRNA in the absence of chemical substance (yeast gene YFL022C): 0.3 | The level of expressed mRNA in the presence of chemical substance/The level of expressed mRNA in the absence of chemical substance (yeast gene YFL028C): 2.0 | The level of expressed mRNA in the presence of chemical substance/The level of expressed mRNA in the absence of chemical substance (yeast gene YFL043C): 1.8 | The level of expressed mRNA in the presence of chemical substance/The level of expressed mRNA in the absence of chemical substance (yeast gene YGL158W): 1.3 | The level of expressed mRNA in the presence of chemical substance/The level of expressed mRNA in the absence of chemical substance (yeast gene YGL229C): 2.2 | The level of expressed mRNA in the presence of chemical substance/The level of expressed mRNA in the absence of chemical substance (yeast gene YGR136W): 1.5 | The level of expressed mRNA in the presence of chemical substance/The level of expressed mRNA in the absence of chemical substance (yeast gene YGR189C): 0.6 | The level of expressed mRNA in the presence of chemical substance/The level of expressed mRNA in the absence of chemical substance (yeast gene YGR213C): 7.0 | The level of expressed mRNA in the presence of chemical substance/The level of expressed mRNA in the absence of chemical substance (yeast gene YGR257C): 2.4 | The level of expressed mRNA in the presence of chemical substance/The level of expressed mRNA in the absence of chemical substance (yeast gene YHR004C): 1.5 | The level of expressed mRNA in the presence of chemical substance/The level of expressed mRNA in the absence of chemical substance (yeast gene YHR071W): 1.0 | The level of expressed mRNA in the presence of chemical substance/The level of expressed mRNA in the absence of chemical substance (yeast gene YHR139C): 1.5 | The level of expressed mRNA in the presence of chemical substance/The level of expressed mRNA in the absence of chemical substance (yeast gene YHR142W): 0.9 | The level of expressed mRNA in the presence of chemical substance/The level of expressed mRNA in the absence of chemical substance (yeast gene YIL123W): 0.5 | The level of expressed mRNA in the presence of chemical substance/The level of expressed mRNA in the absence of chemical substance (yeast gene YIL140W): 0.5 | The level of expressed mRNA in the presence of chemical substance/The level of expressed mRNA in the absence of chemical substance (yeast gene YJL089W): 1.1 | The level of expressed mRNA in the presence of chemical substance/The level of expressed mRNA in the absence of chemical substance (yeast gene YJL116C): 0.8 | The level of expressed mRNA in the presence of chemical substance/The level of expressed mRNA in the absence of chemical substance (yeast gene YJR004C): 0.4 | The level of expressed mRNA in the presence of chemical substance/The level of expressed mRNA in the absence of chemical substance (yeast gene YJR086W): 1.7 | The level of expressed mRNA in the presence of chemical substance/The level of expressed mRNA in the absence of chemical substance (yeast gene YKL008C): 1.4

Reference: patent publication US8192962B2, “Processes for detecting toxic substances” (Daikin Industries, Ltd., priority 2001, dated 2012)
